{"source": "patent US4698306A", "about": "“Process for producing peroxidase” (Takara Shuzo Co., Ltd., priority 1984, dated 1987)", "key": {"peroxidase [1]": {"biological_target": "T1, peroxidase (Coprinopsis cinerea, UniProt P28314)", "T1 sequence (P28314 21-363)": "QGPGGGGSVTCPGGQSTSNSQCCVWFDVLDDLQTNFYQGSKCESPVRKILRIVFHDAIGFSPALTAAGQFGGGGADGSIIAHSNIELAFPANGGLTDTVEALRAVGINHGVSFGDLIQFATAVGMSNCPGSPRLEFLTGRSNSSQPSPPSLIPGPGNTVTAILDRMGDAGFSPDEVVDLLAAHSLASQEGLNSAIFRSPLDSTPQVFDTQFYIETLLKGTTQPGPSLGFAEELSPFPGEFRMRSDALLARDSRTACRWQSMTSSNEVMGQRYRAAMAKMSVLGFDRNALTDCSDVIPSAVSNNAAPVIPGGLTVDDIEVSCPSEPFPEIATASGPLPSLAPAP", "assay": "Effects of inhibitors, metal ions and metal chelating agents on peroxidase activity", "type": "biochemical, Coprinus macrorhizus K-1330", "conditions": "for Relative activity: peroxidase, 1000 µM; for Relative activity / activity at 1000 µM: 1 min; for activity at 1000 µM: read-out: Relative activity"}, "peroxidase [2]": {"biological_target": "T1, peroxidase", "assay": "Specificity for hydrogen donors prepared by combining 4-AA with various compounds", "type": "biochemical, Coprinus macrorhizus K-1330", "conditions": "hydrogen donor combined with 4-AA, phenol = 100"}, "peroxidase [3]": {"biological_target": "T1, peroxidase", "assay": "Specificity for hydrogen donors prepared by combining MBTH with dimethylaniline, diethylaniline or EHMT", "type": "biochemical, Coprinus macrorhizus K-1330", "conditions": "hydrogen donor combined with MBTH; measured at 590 nm; 4-AA/phenol = 100"}, "[4]": {"system": "Coprinus macrorhizus K-1330 (FERM BP-648)", "assay": "Effect of iron salts on the production of peroxidase", "type": "cell-based", "conditions": "culture filtrate, 26° C., 5 to 10 days"}, "[5]": {"conditions": "additive 1 mM, no addition = 100"}}, "note": "Where two headings read alike, the source gives them in different places."}
{"smiles": "[Cl-].[Cl-].[Zn+2]", "note": "[ZnCl2]", "values": [{"measurement": "Relative activity", "setting": "peroxidase [1]", "value": 85, "unit": "%"}]}
{"smiles": "Oc1cccc2ccccc12", "note": "[α-Naphthol]", "values": [{"measurement": "Relative activity", "setting": "peroxidase [2]; measured at 500 nm", "value": 18, "unit": "%"}]}
{"smiles": "Oc1ccc(Br)cc1Br", "note": "[2,4-Dibromophenol]", "values": [{"measurement": "Relative activity", "setting": "peroxidase [2]; measured at 520 nm", "value": 47, "unit": "%"}]}
{"smiles": "Oc1c(Cl)cccc1Cl", "note": "[2,6-Dichlorophenol]", "values": [{"measurement": "Relative activity", "setting": "peroxidase [2]; measured at 520 nm", "value": 154, "unit": "%"}]}
{"smiles": "Oc1ccc(Cl)cc1Cl", "note": "[2,4-Dichlorophenol]", "values": [{"measurement": "Relative activity", "setting": "peroxidase [2]; measured at 520 nm", "value": 115, "unit": "%"}]}
{"smiles": "CCN(CC)c1ccccc1", "note": "[Diethylaniline]", "values": [{"measurement": "Relative activity", "setting": "peroxidase [2]; measured at 550 nm", "value": 49, "unit": "%"}, {"measurement": "Relative activity", "setting": "peroxidase [3]", "value": 49, "unit": "%"}]}
{"smiles": "Oc1ccccc1", "note": "[Phenol]", "values": [{"measurement": "Relative activity", "setting": "peroxidase [2]; measured at 500 nm", "value": 100, "unit": "%"}]}
{"smiles": "[Ba+2].[Cl-].[Cl-]", "note": "[BaCl2]", "values": [{"measurement": "Relative activity", "setting": "peroxidase [1]", "value": 96, "unit": "%"}]}
{"smiles": "[Cl-].[Cl-].[Co+2]", "note": "[CoCl2]", "values": [{"measurement": "Relative activity", "setting": "peroxidase [1]", "value": 98, "unit": "%"}]}
{"smiles": "NC(N)=S", "note": "[Thiourea]", "values": [{"measurement": "Inhibition of the enzyme", "setting": "peroxidase [1]", "value": "inhibited"}, {"measurement": "activity at 1000 µM", "setting": "peroxidase [1]", "value": 57, "unit": "%"}]}
{"smiles": "O=C(O)CI", "note": "[Iodoacetic acid]", "values": [{"measurement": "activity at 1000 µM", "setting": "peroxidase [1]", "value": 100, "unit": "%"}]}
{"smiles": "O=S(=O)(F)Cc1ccccc1", "note": "[PMSF, Phenylmethylsulfonyl fluoride]", "values": [{"measurement": "Relative activity", "setting": "peroxidase [1]", "value": 98, "unit": "%"}]}
{"smiles": "N[C@@H](CS)C(=O)O", "note": "[L-cysteine]", "values": [{"measurement": "activity at 1000 µM", "setting": "peroxidase [1]; [5]", "value": 105, "unit": "%"}]}
{"smiles": "O=C(O)CN(CCN(CC(=O)O)CC(=O)O)CC(=O)O", "note": "[EDTA]", "values": [{"measurement": "activity at 1000 µM", "setting": "peroxidase [1]", "value": 97, "unit": "%"}]}
{"smiles": "CN(C)c1ccccc1", "note": "[Dimethylaniline]", "values": [{"measurement": "Relative activity", "setting": "peroxidase [2]; measured at 550 nm", "value": 21, "unit": "%"}, {"measurement": "Relative activity", "setting": "peroxidase [3]", "value": 50, "unit": "%"}]}
{"smiles": "[Cl][Sn][Cl]", "note": "[SnCl2]", "values": [{"measurement": "Relative activity", "setting": "peroxidase [1]", "value": 92, "unit": "%"}]}
{"smiles": "[Cl][Fe]([Cl])[Cl]", "note": "[FeCl3]", "values": [{"measurement": "Relative activity", "setting": "peroxidase [1]", "value": 107, "unit": "%"}]}
{"smiles": "O[C@H](CS)[C@H](O)CS", "note": "(racemic) [Dithiothreitol]", "values": [{"measurement": "activity at 1000 µM", "setting": "peroxidase [1]; [5]", "value": 95, "unit": "%"}]}
{"smiles": "c1ccc(-c2ccccn2)nc1", "note": "[α,α'-Dipyridyl]", "values": [{"measurement": "activity at 1000 µM", "setting": "peroxidase [1]", "value": 103, "unit": "%"}]}
{"smiles": "Oc1c(Cl)cc(Cl)cc1Cl", "note": "[2,4,6-Trichlorophenol]", "values": [{"measurement": "Relative activity", "setting": "peroxidase [2]; measured at 520 nm", "value": 96, "unit": "%"}]}
{"smiles": "[F-].[Na+]", "note": "[Sodium fluoride]", "values": [{"measurement": "Relative activity", "setting": "peroxidase [1]", "value": 103, "unit": "%"}]}
{"smiles": "O.O.O.O.O.O.O.O=S(=O)([O-])[O-].[Fe+2]", "note": "[FeSO4.7H2 O]", "values": [{"measurement": "Peroxidase activity (maximum activity)", "setting": "[4]; 0.04 % FeSO4.7H2O added to medium", "value": 28.0, "unit": "unit/ml"}, {"measurement": "Peroxidase activity (maximum activity)", "setting": "[4]; 0.08 % FeSO4.7H2O added to medium", "value": 46.4, "unit": "unit/ml"}, {"measurement": "Peroxidase activity (maximum activity)", "setting": "[4]; 0.12 % FeSO4.7H2O added to medium", "value": 75.5, "unit": "unit/ml"}, {"measurement": "Peroxidase activity (maximum activity)", "setting": "[4]; 0.16 % FeSO4.7H2O added to medium", "value": 80.2, "unit": "unit/ml"}, {"measurement": "Peroxidase activity (maximum activity)", "setting": "[4]; 0.20 % FeSO4.7H2O added to medium", "value": 66.0, "unit": "unit/ml"}, {"measurement": "Peroxidase activity (maximum activity)", "setting": "[4]; 0.24 % FeSO4.7H2O added to medium", "value": 36.8, "unit": "unit/ml"}, {"measurement": "Peroxidase activity (maximum activity)", "setting": "[4]; 0.32 % FeSO4.7H2O added to medium", "value": 17.0, "unit": "unit/ml"}]}
{"smiles": "[N-]=[N+]=[N-]", "note": "[Sodium azide]", "values": [{"measurement": "Inhibition of the enzyme", "setting": "peroxidase [1]", "value": "inhibited"}]}
{"smiles": "O=S(=O)([O-])[O-].[Ni+2]", "note": "[NiSO4]", "values": [{"measurement": "Relative activity", "setting": "peroxidase [1]", "value": 92, "unit": "%"}]}
{"smiles": "c1cnc2c(c1)ccc1cccnc12", "note": "[o-Phenanthroline]", "values": [{"measurement": "activity at 1000 µM", "setting": "peroxidase [1]; [5]", "value": 88, "unit": "%"}]}
{"smiles": "Oc1ccccc1O", "note": "[Pyrocatechol]", "values": [{"measurement": "Relative activity", "setting": "peroxidase [2]; measured at 500 nm", "value": 58, "unit": "%"}]}
{"smiles": "[Cl][Mn][Cl]", "note": "[MnCl2]", "values": [{"measurement": "Relative activity", "setting": "peroxidase [1]", "value": 86, "unit": "%"}]}
{"smiles": "O=S(=O)([O-])[O-].[Cu+2]", "note": "[CuSO4]", "values": [{"measurement": "Relative activity", "setting": "peroxidase [1]", "value": 105, "unit": "%"}]}
{"smiles": "[Cl][Hg][Cl]", "note": "[HgCl2]", "values": [{"measurement": "Inhibition of the enzyme", "setting": "peroxidase [1]", "value": "inhibited"}, {"measurement": "Relative activity", "setting": "peroxidase [1]", "value": 6, "unit": "%"}]}
{"smiles": "CCN(CCO)c1cccc(C)c1", "note": "[EHMT, N-ethyl-N-hydroxyethyl-m-toluidine]", "values": [{"measurement": "Relative activity", "setting": "peroxidase [2]; measured at 550 nm", "value": 62, "unit": "%"}, {"measurement": "Relative activity", "setting": "peroxidase [3]", "value": 41, "unit": "%"}]}
{"smiles": "O=C(O)c1cc[c]([Hg][Cl])cc1", "note": "[PCMB, p-Chloromercuribenzoic acid]", "values": [{"measurement": "Relative activity", "setting": "peroxidase [1]", "value": 98, "unit": "%"}]}
{"smiles": "Oc1ccc(O)cc1", "note": "[Hydroquinone]", "values": [{"measurement": "Relative activity", "setting": "peroxidase [2]; measured at 500 nm", "value": 10, "unit": "%"}]}
{"smiles": "Oc1cccc(O)c1", "note": "[Resorcinol]", "values": [{"measurement": "Relative activity", "setting": "peroxidase [2]; measured at 500 nm", "value": 10, "unit": "%"}]}
